# Patent publication US10168342B2, “Lipid probes and uses thereof” (THE SCRIPPS RESEARCH INSTITUTE, priority 2015, dated 2019)
# How the values were obtained:
# Test in all cases: isoTOP-ABPP mapping of AEA-DA-modified peptides in Neuro2a cells
# Format in all cases: cell-based
# [1] = biological target: T1, AEA-DA-modified peptides in Neuro2a cells (Mus musculus, UniProt P59325); details: AEA-DA-modified peptide EIF5 P59325 272-287, SEQ ID NO 36; probe 100 μM, 12 replicates
# T1 construct: endogenous in cells; host or cells: Neuro2a
# Protocol: (§1) Experiments were performed as described above using the AEA-DA probe (100 μM) in 3.0 mL of DMEM (serum-free) and Neuro2A cells without (twelve replicates; ten biological; two technical). For the ligand competition study, cells were treated with the AEA-DA probe (50 μM) and DMSO or MJN228 (50 μM) treatment. Cells were harvested and processed as described above. Whole cell lysates (500 μL at 1.5 mg/mL) were processed for MS analysis using the previously described isoTOPABPP protocol (Speers and Cravatt, 2005). In brief, for global mapping of AEA-DA-modified peptides, proteomes were split into two fractions, which were subjected to click chemistry conditions with either light or heavy isotopically labeled TEV-tags. For the […] competition study, proteomes were subjected to click chemistry conditions with either light (DMSO) or heavy (MJN228-treated) TEV-tags. Light and heavy-tagged proteomes in each experiment were then combined, and, following enrichment of probe-labeled targets using streptavidin beads, proteins were digested on-bead with trypsin and remaining immobilized peptides released with a subsequent TEV protease digestion. The resulting probe-modified peptides were collected for MS analysis, which was performed as described above with differences in the salt bumps applied in the chromatographic gradients which were 0%, 30%, 60%, 90% and 100% NH4OAc (500 mM). The protein identification searches of the MS data were performed using the same software packages described above with the following changes applied to identify the peptides modified with AEA-DA and the cleaved TEV tag. All amino acids were considered as possible residues for modification. To facilitate the computational searches, sets of up to 3 amino acids were searched using ProLuCID and filtered with DTASelect as described above. The mass of the modification used to search for probe-modified peptides was +727.4745 m/z for the probe plus the light TEV-tag and +733.4831 m/z for the heavy counterpart. […] For global mapping experiments, AEA-DA-modified peptides were expected to show a ratio of “heavy” and “light” signals of ˜1.0 (0.5<ratio<2.0) and were required to have been detected in at least two of the twelve replicate experiments.
# (§2) In some embodiments, the ligands are tested for their interaction to NUCB1 in cells. […] MJN228 inhibited lipid probe binding to NUCB1 at concentrations as low as 10 μM, with near-maximal inhibition observed at ˜25 μM (FIG. 16A). […] The site of arachidonoyl probe (and MJN228) binding to NUCB1 was mapped in cells, which was accomplished by treating Neuro2A cells with the AEA-DA probe (50 μM) in the presence of DMSO or MJN228 (50 μM), followed by UV irradiation, CuAAC conjugation of AEA-DA-labeled proteins to isotopically light (DMSO-treated cells) and heavy (MJN228-treated cells) azide-biotin tags featuring a TEV protease-cleavable linker, and LCMS/MS analysis using a previously described platform, termed isoTOP-ABPP, for mapping probe-modified peptides in proteomes (Speers and Cravatt, 2005). A AEA-DA labeled peptide was identified for NUCB1 (aa 53-68) in DMSO-treated cells and the signals for this peptide were substantially (>5-fold) reduced in MJN228-treated cells (FIG. 15C). This AEA-DA labeling site was confirmed using recombinant, purified hNUCB1 and tandem MS analysis which narrowed down the site of probe modification to His67 (FIGS. 16B and 16C).
# [2] = biological target: T2, AEA-DA-modified peptides in Neuro2a cells (Mus musculus, UniProt Q9Z2R6); details: AEA-DA-modified peptide UNC119 Q9Z2R6 131-140, SEQ ID NO 117; probe 100 μM, 12 replicates
# T2 construct: endogenous in cells; host or cells: Neuro2a
# Protocol: as §1, §2
# [3] = biological target: T3, AEA-DA-modified peptides in Neuro2a cells (Mus musculus, UniProt P70333); details: AEA-DA-modified peptide HNRNPH 2 P70333 50-69, SEQ ID NO 50; probe 100 μM, 12 replicates
# T3 construct: endogenous in cells; host or cells: Neuro2a
# Protocol: as §1, §2
# [4] = biological target: T4, AEA-DA-modified peptides in Neuro2a cells (Mus musculus, UniProt Q91V01); details: AEA-DA-modified peptide LPCAT3 Q91V01 18-31, SEQ ID NO 58; probe 100 μM, 12 replicates
# T4 construct: endogenous in cells; host or cells: Neuro2a
# Protocol: as §1, §2
# [5] = biological target: T5, AEA-DA-modified peptides in Neuro2a cells (Mus musculus, UniProt P36536); details: AEA-DA-modified peptide SAR1A P36536 192-199, SEQ ID NO 95; probe 100 μM, 12 replicates
# T5 construct: endogenous in cells; host or cells: Neuro2a
# Protocol: as §1, §2
# [6] = biological target: T6, AEA-DA-modified peptides in Neuro2a cells (Mus musculus, UniProt Q8BH04); details: AEA-DA-modified peptide PCK2 Q8BH04 245-262, SEQ ID NO 79; probe 100 μM, 12 replicates
# T6 construct: endogenous in cells; host or cells: Neuro2a
# Protocol: as §1, §2
# [7] = biological target: T7, AEA-DA-modified peptides in Neuro2a cells (Mus musculus, UniProt Q8BGC4); details: AEA-DA-modified peptide ZADH2 Q8BGC4 86-115, SEQ ID NO 122; probe 100 μM, 12 replicates
# T7 construct: endogenous in cells; host or cells: Neuro2a
# Protocol: as §1, §2
# [8] = biological target: T8, AEA-DA-modified peptides in Neuro2a cells (Mus musculus, UniProt P84078); details: AEA-DA-modified peptide ARF1 P84078 39-60, SEQ ID NO 10; probe 100 μM, 12 replicates
# T8 construct: endogenous in cells; host or cells: Neuro2a
# Protocol: as §1, §2
# [9] = biological target: T9, AEA-DA-modified peptides in Neuro2a cells (Mus musculus, UniProt P62259); details: AEA-DA-modified peptide YWHAE P62259 197-226, SEQ ID NO 121; probe 100 μM, 12 replicates
# T9 construct: endogenous in cells; host or cells: Neuro2a
# Protocol: as §1, §2
# [10] = biological target: T10, AEA-DA-modified peptides in Neuro2a cells (Mus musculus, UniProt Q91WC3); details: AEA-DA-modified peptide ACSL6 Q91WC3 408-420, SEQ ID NO 3; probe 100 μM, 12 replicates
# T10 construct: endogenous in cells; host or cells: Neuro2a
# Protocol: as §1, §2
# [11] = biological target: T11, AEA-DA-modified peptides in Neuro2a cells (Mus musculus, UniProt Q9DCC8); details: AEA-DA-modified peptide TOMM20 Q9DCC8 69-89, SEQ ID NO 115; probe 100 μM, 12 replicates
# T11 construct: endogenous in cells; host or cells: Neuro2a
# Protocol: as §1, §2
# [12] = biological target: T12, AEA-DA-modified peptides in Neuro2a cells (Mus musculus, UniProt P18242); details: AEA-DA-modified peptide CTSD P18242 312-330, SEQ ID NO 27; probe 100 μM, 12 replicates
# T12 construct: endogenous in cells; host or cells: Neuro2a
# Protocol: as §1, §2
# T5 sequence (P36536 whole entry): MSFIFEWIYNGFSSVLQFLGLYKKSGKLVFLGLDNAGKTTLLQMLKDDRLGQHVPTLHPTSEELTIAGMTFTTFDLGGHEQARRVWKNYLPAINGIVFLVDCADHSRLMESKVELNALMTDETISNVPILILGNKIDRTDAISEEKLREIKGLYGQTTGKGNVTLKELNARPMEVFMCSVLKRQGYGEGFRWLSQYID
# T6 sequence (Q8BH04 33-640): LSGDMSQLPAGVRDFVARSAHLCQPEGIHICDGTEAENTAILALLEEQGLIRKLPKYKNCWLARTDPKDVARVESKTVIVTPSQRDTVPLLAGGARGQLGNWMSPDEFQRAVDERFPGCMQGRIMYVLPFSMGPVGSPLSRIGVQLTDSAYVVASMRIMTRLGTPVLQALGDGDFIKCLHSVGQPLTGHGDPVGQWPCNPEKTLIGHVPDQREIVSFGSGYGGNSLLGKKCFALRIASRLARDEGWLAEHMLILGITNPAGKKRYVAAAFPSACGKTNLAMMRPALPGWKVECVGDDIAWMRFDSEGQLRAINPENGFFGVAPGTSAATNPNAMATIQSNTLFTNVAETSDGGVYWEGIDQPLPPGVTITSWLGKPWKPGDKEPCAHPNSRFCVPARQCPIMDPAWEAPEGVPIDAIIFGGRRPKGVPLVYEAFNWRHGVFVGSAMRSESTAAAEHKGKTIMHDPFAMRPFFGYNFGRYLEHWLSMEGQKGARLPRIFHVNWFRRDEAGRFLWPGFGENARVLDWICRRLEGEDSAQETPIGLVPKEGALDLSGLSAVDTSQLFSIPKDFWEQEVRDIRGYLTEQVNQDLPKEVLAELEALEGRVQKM
# T9 sequence (P62259 whole entry): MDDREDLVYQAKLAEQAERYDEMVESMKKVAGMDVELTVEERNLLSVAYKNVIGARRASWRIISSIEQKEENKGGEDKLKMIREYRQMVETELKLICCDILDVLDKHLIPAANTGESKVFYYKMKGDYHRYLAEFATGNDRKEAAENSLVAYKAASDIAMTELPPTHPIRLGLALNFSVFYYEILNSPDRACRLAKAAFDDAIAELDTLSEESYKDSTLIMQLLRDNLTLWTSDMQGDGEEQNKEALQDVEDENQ
# T7 sequence (Q8BGC4 whole entry): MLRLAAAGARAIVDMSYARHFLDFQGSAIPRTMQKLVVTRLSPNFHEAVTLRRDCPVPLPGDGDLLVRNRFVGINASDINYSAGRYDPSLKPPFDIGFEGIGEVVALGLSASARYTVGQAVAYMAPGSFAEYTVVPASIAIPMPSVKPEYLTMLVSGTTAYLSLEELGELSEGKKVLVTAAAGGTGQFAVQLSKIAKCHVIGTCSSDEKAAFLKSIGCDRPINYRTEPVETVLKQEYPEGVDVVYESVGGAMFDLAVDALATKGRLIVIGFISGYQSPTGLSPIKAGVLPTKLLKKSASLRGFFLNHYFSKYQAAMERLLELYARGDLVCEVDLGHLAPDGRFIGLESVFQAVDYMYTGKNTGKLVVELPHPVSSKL
# T4 sequence (Q91V01 whole entry): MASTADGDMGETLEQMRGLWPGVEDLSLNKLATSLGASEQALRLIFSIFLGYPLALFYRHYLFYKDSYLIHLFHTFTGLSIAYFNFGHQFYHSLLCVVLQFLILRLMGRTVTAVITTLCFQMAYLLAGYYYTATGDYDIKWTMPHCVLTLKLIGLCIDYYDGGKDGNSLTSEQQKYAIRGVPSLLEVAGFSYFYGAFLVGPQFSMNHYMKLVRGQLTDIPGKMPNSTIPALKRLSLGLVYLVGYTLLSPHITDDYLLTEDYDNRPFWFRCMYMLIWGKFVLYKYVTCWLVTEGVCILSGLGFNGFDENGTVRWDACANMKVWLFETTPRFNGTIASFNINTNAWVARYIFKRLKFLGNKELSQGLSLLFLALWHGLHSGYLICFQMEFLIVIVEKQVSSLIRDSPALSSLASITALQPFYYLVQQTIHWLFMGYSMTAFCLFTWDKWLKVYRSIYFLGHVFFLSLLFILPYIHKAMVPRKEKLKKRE
# T1 sequence (P59325 whole entry): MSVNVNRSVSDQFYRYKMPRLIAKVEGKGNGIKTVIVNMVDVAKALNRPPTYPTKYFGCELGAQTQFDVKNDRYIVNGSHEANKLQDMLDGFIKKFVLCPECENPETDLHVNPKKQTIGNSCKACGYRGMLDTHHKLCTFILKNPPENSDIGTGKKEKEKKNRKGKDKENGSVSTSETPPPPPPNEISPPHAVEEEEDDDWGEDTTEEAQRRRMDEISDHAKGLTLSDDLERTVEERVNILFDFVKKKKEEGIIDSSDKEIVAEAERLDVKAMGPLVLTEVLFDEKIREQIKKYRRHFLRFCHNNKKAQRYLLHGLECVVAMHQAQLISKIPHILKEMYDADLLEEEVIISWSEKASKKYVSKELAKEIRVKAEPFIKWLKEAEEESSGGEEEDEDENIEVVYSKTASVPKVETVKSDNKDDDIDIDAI
# T11 sequence (Q9DCC8 whole entry): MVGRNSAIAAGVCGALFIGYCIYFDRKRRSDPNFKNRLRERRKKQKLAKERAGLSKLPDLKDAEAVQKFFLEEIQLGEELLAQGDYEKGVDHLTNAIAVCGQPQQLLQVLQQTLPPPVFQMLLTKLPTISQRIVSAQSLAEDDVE
# T10 sequence (Q91WC3 whole entry): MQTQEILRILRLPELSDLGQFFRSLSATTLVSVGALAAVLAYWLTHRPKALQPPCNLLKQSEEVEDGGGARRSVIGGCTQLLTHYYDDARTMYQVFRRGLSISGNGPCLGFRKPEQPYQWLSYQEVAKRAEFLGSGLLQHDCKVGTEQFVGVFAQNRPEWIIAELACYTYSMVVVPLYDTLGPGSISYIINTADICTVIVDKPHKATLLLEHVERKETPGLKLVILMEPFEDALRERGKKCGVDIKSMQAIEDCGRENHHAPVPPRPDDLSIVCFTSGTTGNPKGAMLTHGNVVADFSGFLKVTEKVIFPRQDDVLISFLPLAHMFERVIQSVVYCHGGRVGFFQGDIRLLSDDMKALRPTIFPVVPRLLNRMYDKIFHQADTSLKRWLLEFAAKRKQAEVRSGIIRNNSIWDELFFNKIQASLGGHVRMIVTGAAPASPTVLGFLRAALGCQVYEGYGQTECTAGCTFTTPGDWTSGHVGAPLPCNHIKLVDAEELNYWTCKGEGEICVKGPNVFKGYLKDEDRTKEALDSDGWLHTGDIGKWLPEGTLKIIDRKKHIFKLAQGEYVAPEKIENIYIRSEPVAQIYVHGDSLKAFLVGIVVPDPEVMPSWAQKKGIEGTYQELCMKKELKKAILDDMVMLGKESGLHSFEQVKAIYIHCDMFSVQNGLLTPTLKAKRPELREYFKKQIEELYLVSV
# T8 sequence (P84078 whole entry): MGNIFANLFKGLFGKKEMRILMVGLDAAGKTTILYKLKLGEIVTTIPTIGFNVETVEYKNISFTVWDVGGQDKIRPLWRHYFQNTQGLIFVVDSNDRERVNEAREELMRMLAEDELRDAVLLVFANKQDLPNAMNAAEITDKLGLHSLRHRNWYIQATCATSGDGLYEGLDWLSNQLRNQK
# T12 sequence (P18242 65-410): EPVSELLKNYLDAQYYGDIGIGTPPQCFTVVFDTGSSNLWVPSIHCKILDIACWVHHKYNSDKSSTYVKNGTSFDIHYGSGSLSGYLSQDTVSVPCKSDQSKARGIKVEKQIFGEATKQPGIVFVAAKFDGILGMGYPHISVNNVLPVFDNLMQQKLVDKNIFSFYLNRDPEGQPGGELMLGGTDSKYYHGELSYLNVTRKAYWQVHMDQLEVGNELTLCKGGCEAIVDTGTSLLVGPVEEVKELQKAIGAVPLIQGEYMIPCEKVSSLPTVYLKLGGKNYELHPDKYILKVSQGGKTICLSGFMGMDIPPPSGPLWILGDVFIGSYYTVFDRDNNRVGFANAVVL
# T3 sequence (P70333 whole entry): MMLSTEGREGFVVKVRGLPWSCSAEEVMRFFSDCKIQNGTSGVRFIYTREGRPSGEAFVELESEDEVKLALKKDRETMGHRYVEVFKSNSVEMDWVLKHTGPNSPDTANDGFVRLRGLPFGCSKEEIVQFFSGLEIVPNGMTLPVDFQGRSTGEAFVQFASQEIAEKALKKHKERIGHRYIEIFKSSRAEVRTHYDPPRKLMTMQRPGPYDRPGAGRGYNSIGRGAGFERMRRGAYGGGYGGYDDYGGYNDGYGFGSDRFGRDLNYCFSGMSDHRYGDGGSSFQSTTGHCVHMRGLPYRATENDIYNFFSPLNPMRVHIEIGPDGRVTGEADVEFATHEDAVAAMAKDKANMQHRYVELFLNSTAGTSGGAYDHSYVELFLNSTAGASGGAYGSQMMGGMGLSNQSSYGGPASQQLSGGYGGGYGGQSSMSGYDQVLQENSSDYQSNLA
structure (smiles),measurement,setting,value
"C#CCCCC1(CC/C=C\C/C=C\C/C=C\CCCC(=O)NCCO)N=N1 [AEA-DA, (5Z,8Z,11Z)-N-(2-hydroxyethyl)-14-(3-(pent-4-yn-1-yl)-3H-diazirin-3-yl)tetradeca-5,8,11-trienamide]",Times observed,[1],12
same,Times observed,[2],3
same,Times observed,[3],9
same,Times observed,[4],2
same,Times observed,[5],6
same,Times observed,[6],12
same,Times observed,[7],8
same,Times observed,[8],9
same,Times observed,[9],8
same,Times observed,[10],6
same,Times observed,[11],7
same,Times observed,[12],12
